Experimental data as given in US6528532B1, “Urea derivatives as HIV aspartyl protease inhibitors” (Pharmacor Inc., priority 2002, dated 2003).

Assays:
[1] = in vitro; format: cell-based; details: human
Procedure: To evaluate the EC50 of our compounds, various drug concentrations are incubated with the infected cell for six days and then the metabolic activity of the cells is monitored by the MTT assay. (See A. J. Japour et al, Antimicrobial Agents and Chemotherapy, 37, 1095-1101, 1993 and R. Pauwels et al. Journal of Virological Methods, 20, 309-321, 1988).
We use the laboratory viral strain NL4.3 as wild type virus and the cell line used is MT-4 which is a T-cell line highly sensitive to HIV-1. We also use some WT clinical strains. To address the resistance issue we assay the inhibitors with NL4.3 mutants which are designed to be resistant to specific commercially available inhibitors.
The same MTT assay is used to evaluate the CCIC50 (cell culture IC50) of our compounds except that the virus is omitted.

[2] = molecular target: HIV protease (Human immunodeficiency virus type 1 group M subtype B, UniProt P04585); test: Enzymatic (FRET fluorometric) assay for determining the inhibition constant (Ki) of compounds targeting the HIV protease; format: biochemical; details: Ki, FRET substrate (EDANS/DABCYL), equation of Henderson
Source text: Enzymatic Assay for Determining the Inhibition Constant (Ki) of Synthetic Compounds Targeting the HIV Protease
This is a fluorometric assay based on the cleavage by protease of a substrate carrying a donor group (EDANS) and an acceptor group (DABCYL) on each side of the cleavage site, interacting together through fluorescence resonance energy transfer (FRET) as described by Matayoshi et al. (Science 247:[…], 1990).
After calculation of Vo and Vi, the inhibition constant (Ki) of the compound is determined using the equation of Henderson: [formula]
where Vo=the enzyme's initial velocity
Vi=the enzyme velocity in the presence of the inhibitory compound,
[I]=inhibitor concentration, [S]=substrate concentration,
Km=Michaelis-Menten constant and Kiapp=apparent Ki
Graphs are traced and the Ki determined using GraphPad Prism software v. 3.0.

SMILES: CC(C)CN([C@H](CO)CCCCNC(=O)N(Cc1ccccc1)Cc1ccc2c(c1)OCO2)S(=O)(=O)c1ccc(N)cc1 [Example 82, (2S) 2-N-(4-Aminobenzenesulfonyl)-2-N-isobutyl-6-N-(N′-benzyl-N′-piperonylaminocarbonyl)-2,6-diaminohexanol]
- IC50 at 6 days [1]: 12500 nM
- Ki [2]: 2.6 nM

SMILES: Cc1ccc(S(=O)(=O)N(CC(C)C)[C@H](CO)CCCCNC(=O)N(Cc2ccccc2)Cc2ccccc2[N+](=O)[O-])cc1 [Example 59, (2S) 2-N-Isobutyl-2-N-(4-methylbenzenesulfonyl)-6-N-[N′-benzyl-N′-(2-nitrobenzyl)aminocarbonyl]-2,6-diaminohexanol]
- IC50 at 6 days [1]: 4600 nM
- Ki [2]: 1.7 nM

SMILES: Cc1ccc(S(=O)(=O)N(CC(C)C)[C@H](CO)CCCCNC(=O)N(Cc2ccccc2)Cc2cccc([N+](=O)[O-])c2)cc1 [Example 60, (2S) 2-N-Isobutyl-2-N-(4-methylbenzenesulfonyl)-6-N-[N′-benzyl-N′-(3-nitrobenzyl)aminocarbonyl]-2,6-diaminohexanol]
- IC50 at 6 days [1]: 4600 nM
- Ki [2]: 6 nM
